From patent US5420289A, “Substituted indole-, indene-, pyranoindole- and tetrahydrocarbazole-alkanoic acid derivatives as inhibitors of PLA2 and lipoxygenase” (American Home Products Corporation, priority 1993, dated 1995)

Legend:
[1] = test system: cyclooxygenase (PGE2 synthesis) in rat polymorphonuclear leukocytes (PMN); assay: inhibition of PGE2 synthesis (cyclooxygenase) by rat glycogen-elicited PMN (Example 73); format: cell-based, rat (female Wistar); settings: Leukocyte, at 10 mM, * (negative) denotes a potentiation, read-out: % Inhibition (PGE2 synthesis)
Method in brief: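 Glycogen-elicited peritoneal PMNs from female Wistar rats, 2.0×10^7 cells/mL in HBSS with Ca/Mg and 10 mM L-cysteine, preincubated with drug 10 min at 37° C. Stimulated 10 min with A23187 plus [3H]-AA and unlabeled AA (stocks 1 mM); supernatant [3H]-PGE2 measured by reverse-phase HPLC co-chromatographed with reference standard.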

[2] = test system: lipoxygenase pathway (LTC4); assay: in vivo murine zymosan peritonitis assay, LTC4 (Example 76); parameters: species or system mouse (male CD-1); settings: 50 mg/kg p.o.; negative values denote potentiation
Description: (§1) The compounds of the invention are evaluated for their ability to inhibit the lipoxygenase and/or cyclooxygenase pathways of arachidonic acid metabolism in the in vivo murine zymosan peritonitis assay.
(§2) This assay is carried out as follows:
(§3) Male CD-1 mice (8 weeks old) are placed in plastic boxes in groups of six. Animals are injected with 1 mL i.p. of either 1% zymosan in pyrogen free 0.9% saline or saline (unstimulated control). Compounds are dosed orally 1 hour prior to zymosan injection. Twenty minutes after zymosan injection, the mice are asphyxiated by CO2 inhalation and tile peritoneal cavity is lavaged with 2 mL ice cold Hanks Balanced Salt Solution (HBSS) without CaCl2, MgSO4 ·7H2 O and MgCl2 ·6H2 O. Peritoneal lavage fluid from each mouse is removed by syringe and placed in 5 mL plastic test tubes put on ice and volume is noted. […]
(§4) The total metabolite level in lavage fluid/mouse is calculated and the significance is determined by a one-way analysis of variance with LSD comparisons to control (p<0.05). Drug effects are expressed as a percent change from control values.

[3] = test system: cyclooxygenase pathway (6-keto-PGF1a); assay: in vivo murine zymosan peritonitis assay, 6-keto-PGF1a (Example 76); parameters: species or system mouse (male CD-1); settings: 50 mg/kg p.o.; negative values denote potentiation
Description: as §1, §2, §3, §4

carrageenan paw edema = assay: rat carrageenan paw edema assay (Example 78); format: in vivo, rat (male Sprague-Dawley); settings: 50 mg/kg peroral; 3 hours after carrageenan
Description: The compounds of the invention are further tested in the rat carrageenan paw edema assay to determine their ability to inhibit the acute inflammatory response.
This assay is carried out as follows: 140-180 g Male Sprague-Dawley rats, in groups of 6 animals are injected subcutaneously in the right paw with 0.1 mL of 1% carrageenan at zero time. Mercury plethysmographic readings (mL) of the paw are made at zero time and 3 hours later. Test compounds are suspended or dissolved in 0.5% methylcellulose and given perorally 1 hour prior to carrageenan administration.
The increase in paw volume (edema in mL) produced by the carrageenan is measured. Paw edema is calculated (3 hour volume minus zero time volume), and percent inhibition of edema is determined. Unpaired Student's t-test is used to determine statistical significance.

[4] = test system: synthesis of LTB4 by rat glycogen-elicited polymorphonuclear leukocytes (PMN); assay: inhibition of LTB4 synthesis by rat glycogen-elicited PMN (Example 72); format: cell-based, rat (female Wistar); settings: Leukocyte, at 10 mM, negative number denotes potentiation
Method in brief: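 Peritoneal PMNs from female Wistar rats 18-24 h after i.p. glycogen, 2.0×10^7 cells/mL in HBSS with Ca/Mg and 10 mM L-cysteine; compound preincubated 10 min at 37° C, then A23187 […] added for 10 min. Supernatant [3H]-LTB4 quantified by radio-HPLC versus drug-free stimulated cells; percent inhibition or IC50.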

## CC1(CC(=O)O)OCCc2c1[nH]c1ccc(OCc3ccc4ccccc4n3)cc21 (stereo not shown) [Example 10, 1-Methyl-1,3,4,9-tetrahydro-6-(2-quinolinylmethoxy)pyrano[3.4-b]indole-1-acetic acid]
[1]
  inhibition at 10000 µM: -41%
[2]
  % Inhibition LTC4: 11%
[3]
  % Inhibition 6-keto-PGF: -5%
Carrageenan paw edema
  % Inhibition 50 mg/kg (peroral): 48%
[4]
  inhibition at 10000 µM: 91%

## CCC1(CC(=O)O)CCCc2c1[nH]c1ccc(OCc3ccc4ccccc4n3)cc21 (stereo not shown) [Example 11, 1-Ethyl-2,3,4,9-tetrahydro-6-(2-quinolinylmethoxy)-1H-carbazole-1-acetic acid]
[1]
  inhibition at 10000 µM: 80%
[2]
  % Inhibition LTC4: -49%
[3]
  % Inhibition 6-keto-PGF: 47%
Carrageenan paw edema
  % Inhibition 50 mg/kg (peroral): +1%
[4]
  inhibition at 10000 µM: 95%
